The compounds below were run on hepatocellular carcinoma cell line Hub-7 (assay: Cell proliferation assay, Hub-7 (CELL-TITER GLO)). Conditions: Hub-7 cells, 24 h incubation, cell viability by CELL-TITER GLO, top concentration 10 μM; read-out: EC50, Inhibition of Hub-7 Cell Proliferation.
Assay type: cell-based
Summary of the method: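 Hub-7 cells, 4,000 per well, seeded overnight, then exposed 24 h to compound from 10 μM top in 3-fold serial dilution. Viability read by CELL-TITER GLO luminescence; EC50 derived and binned into potency categories.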

EC50	Structure (SMILES)
≤ 0.2 µM	C#Cc1nc(C(=O)NCc2ccc([N+](=O)[O-])cc2)cs1 [Compound C103, 2-Ethynyl-N-(4-nitrobenzyl)thiazole-4-carboxamide]
0.2 to 1 µM	C#Cc1nc(C(=O)NCc2ccc(C#N)cc2)cs1 [Compound C104, N-(4-Cyanobenzyl)-2-ethynylthiazole-4-carboxamide]
1 to 5 µM	C#Cc1nc(C(=O)NCCc2cccc(S(C)(=O)=O)c2)cs1 [Compound C105, 2-Ethynyl-N-(3-(methylsulfonyl)phenethyl)thiazole-4-carboxamide]
0.2 to 1 µM	C#Cc1nc(C(=O)NCCc2ccccc2Cl)cs1 [Compound C106, N-(2-Chlorophenethyl)-2-ethynylthiazole-4-carboxamide]
0.2 to 1 µM	C#Cc1nc(C(=O)NCc2cccc([N+](=O)[O-])c2)cs1 [Compound C107, 2-Ethynyl-N-(3-nitrobenzyl)thiazole-4-carboxamide]
1 to 5 µM	C#Cc1nc(C(=O)NCc2ccc(S(C)(=O)=O)cc2)cs1 [Compound C108, 2-Ethynyl-N-(4-(methylsulfonyl)benzyl)thiazole-4-carboxamide]
1 to 5 µM	C#Cc1nc(C(=O)NCc2ncccc2Cl)cs1 [Compound C109, N-((3-Chloropyridin-2-yl)methyl)-2-ethynylthiazole-4-carboxamide]
0.2 to 1 µM	C#Cc1nc(C(=O)NCCc2cccc(Cl)c2)cs1 [Compound C110, N-(3-Chlorophenethyl)-2-ethynylthiazole-4-carboxamide]
> 5 µM	C#Cc1nc(C(=O)NCc2ccccc2)c[nH]1 [Compound C111, N-Benzyl-2-ethynyl-1H-imidazole-4-carboxamide]
0.2 to 1 µM	C#Cc1nc(C(=O)NCc2ccccc2-c2ccccc2)cs1 [Compound C112, N-([1,1′-Biphenyl]-2-ylmethyl)-2-ethynylthiazole-4-carboxamide]
≤ 0.2 µM	C#Cc1nc(C(=O)NCc2cccc3ccccc23)cs1 [Compound C113, 2-Ethynyl-N-(naphthalen-1-ylmethyl)thiazole-4-carboxamide]
≤ 0.2 µM	C#Cc1nc(C(=O)NCc2ccc(-c3ccccc3)cc2)cs1 [Compound C114, N-([1,1′-Biphenyl]-4-ylmethyl)-2-ethynylthiazole-4-carboxamide]
≤ 0.2 µM	C#Cc1nc(C(=O)NCc2cccc(-c3ccccc3)c2)cs1 [Compound C115, N-([1,1′-Biphenyl]-3-ylmethyl)-2-ethynylthiazole-4-carboxamide]
1 to 5 µM	C#Cc1nc(C(=O)N(CCC(=O)OCC)Cc2ccccc2)cs1 [Compound C116, Ethyl 3-(N-benzyl-2-ethynylthiazole-4-carboxamido)propanoate]
0.2 to 1 µM	C#Cc1nc(C(=O)NCc2ccc(C(=O)OC)cc2)cs1 [Compound C117, Methyl 4-((2-ethynylthiazole-4-carboxamido)methyl)benzoate]
0.2 to 1 µM	C#Cc1nc(C(=O)NCc2ccc(N)cc2)cs1 [Compound C118, N-(4-Aminobenzyl)-2-ethynylthiazole-4-carboxamide]
> 5 µM	C#Cc1nc(C(=O)NCc2ccn(C)n2)cs1 [Compound C119, 2-Ethynyl-N-((1-methyl-1H-pyrazol-3-yl)methyl)thiazole-4-carboxamide]
> 5 µM	C#Cc1nc(C(=O)NCc2cnn(C)c2)cs1 [Compound C120, 2-Ethynyl-N-((1-methyl-1H-pyrazol-4-yl)methyl)thiazole-4-carboxamide]
1 to 5 µM	C#Cc1nc(C(=O)NCc2ccc(O)cc2)cs1 [Compound C121, 2-Ethynyl-N-(4-hydroxybenzyl)thiazole-4-carboxamide]
1 to 5 µM	C#Cc1nc(C(=O)NCCc2ccc(O)c(OC)c2)cs1 [Compound C122, 2-Ethynyl-N-(4-hydroxy-3-methoxyphenethyl)thiazole-4-carboxamide]
0.2 to 1 µM	C#Cc1nc(NC(=O)CCc2ccccc2)cs1 [Compound C123, N-(2-Ethynylthiazol-4-yl)-3-phenylpropanamide]
0.2 to 1 µM	C#Cc1nc(C(=O)NCc2cccc(C(=O)OC)c2)cs1 [Compound C124, Methyl 3-((2-ethynylthiazole-4-carboxamido)methyl)benzoate]
≤ 0.2 µM	C#Cc1nc(C(=O)NCc2cccc(Cl)c2)cs1 [Compound C125, N-(3-Chlorobenzyl)-2-ethynylthiazole-4-carboxamide]
1 to 5 µM	C#Cc1nc(C(=O)NCc2ccccn2)cs1 [Compound C126, 2-Ethynyl-N-(pyridin-2-ylmethyl)thiazole-4-carboxamide]
0.2 to 1 µM	C#Cc1nc(C(=O)NCc2cccc(C#N)c2)cs1 [Compound C127, N-(3-Cyanobenzyl)-2-ethynylthiazole-4-carboxamide]
1 to 5 µM	C#Cc1nc(C(=O)NCCc2ccc(N)cc2)cs1 [Compound C128, N-(4-Aminophenethyl)-2-ethynylthiazole-4-carboxamide]

EC50	Structure (SMILES)
≤ 0.2 µM	C#Cc1nc(C(=O)NCCc2ccc([N+](=O)[O-])cc2)cs1 [Compound C129, 2-Ethynyl-N-(4-nitrophenethyl)thiazole-4-carboxamide]
1 to 5 µM	C#Cc1nc(C(=O)Nc2cccc3[nH]ncc23)cs1 [Compound C130, 2-Ethynyl-N-(1H-indazol-4-yl)thiazole-4-carboxamide]
1 to 5 µM	C#Cc1nc(C(=O)N(CC(=O)OCC)Cc2ccccc2)cs1 [Compound C131, Ethyl N-benzyl-N-(2-ethynylthiazole-4-carbonyl)glycinate]
> 5 µM	C#Cc1ncc(C(=O)NCc2ccccc2)n1C [Compound C132, N-Benzyl-2-ethynyl-1-methyl-1H-imidazole-5-carboxamide]
1 to 5 µM	C#Cc1nc(C(=O)N(CCO)Cc2ccccc2)cs1 [Compound C133, N-Benzyl-2-ethynyl-N-(2-hydroxyethyl)thiazole-4-carboxamide]
1 to 5 µM	C#Cc1nc(C(=O)Nc2cccc3cn[nH]c23)cs1 [Compound C134, 2-Ethynyl-N-(11H-indazol-7-yl)thiazole-4-carboxamide]
1 to 5 µM	C#Cc1nc(C(=O)NC[C@@H](O)c2ccccc2)cs1 [Compound C135, (S)-2-Ethynyl-N-(2-hydroxy-2-phenylethyl)thiazole-4-carboxamide]
> 5 µM	C#Cc1nc(C(=O)NCc2ccccc2NC(C)=O)cs1 [Compound C136, N-(2-Acetamidobenzyl)-2-ethynylthiazole-4-carboxamide]
1 to 5 µM	C#Cc1nc(C(=O)N(C)Cc2ccccc2)cs1 [Compound C137, N-Benzyl-2-ethynyl-N-methylthiazole-4-carboxamide]
1 to 5 µM	C#Cc1nc(C(=O)NCCc2ccccc2)cs1 [Compound C138, 2-Ethynyl-N-phenethylthiazole-4-carboxamide]
> 5 µM	C#Cc1nc(C(=O)NCc2cccc3[nH]ccc23)cs1 [Compound C139, N-((1H-Indol-4-yl)methyl)-2-ethynylthiazole-4-carboxamide]
1 to 5 µM	C#Cc1nc(C(=O)NCc2ccccc2N)cs1 [Compound C140, N-(2-Aminobenzyl)-2-ethynylthiazole-4-carboxamide]
1 to 5 µM	C#Cc1ncc(C(=O)NCc2ccccc2)s1 [Compound C141, N-Benzyl-2-ethynylthiazole-5-carboxamide]
> 5 µM	C#Cc1nc(C(=O)NCc2ccccc2)co1 [Compound C142, N-Benzyl-2-ethynyloxazole-4-carboxamide]
0.2 to 1 µM	C#Cc1nc(C(=O)NCc2ccccc2Cl)cs1 [Compound C143, N-(2-Chlorobenzyl)-2-ethynylthiazole-4-carboxamide]
1 to 5 µM	C#Cc1nc(C(=O)NCc2ccccc2OC)cs1 [Compound C144, 2-Ethynyl-N-(2-methoxybenzyl)thiazole-4-carboxamide]
> 5 µM	C#Cc1csc(C(=O)NCc2ccccc2)n1 [Compound C145, N-Benzyl-4-ethynylthiazole-2-carboxamide]
1 to 5 µM	C#Cc1nc(C(=O)NCc2ccccc2)cs1 [Compound C148, N-Benzyl-2-ethynylthiazole-4-carboxamide]
≤ 0.2 µM	C#Cc1nc(C(=O)N2CCN(c3ccc(-c4c(C)ccc5c4cnn5C)cc3)CC2)cs1 [Compound D1, (4-(4-(1,5-Dimethyl-1H-indazol-4-yl)phenyl)piperazin-1-yl)(2-ethynylthiazol-4-yl)methanone]
≤ 0.2 µM	C#Cc1nc(C(=O)N2CCN(c3ccc(-c4cc(C(=O)OC)cc5c4cnn5C)cc3)CC2)cs1 [Compound D2, Methyl 4-(4-(4-(2-ethynylthiazole-4-carbonyl)piperazin-1-yl)phenyl)-1-methyl-1H-indazole-6-carboxylate]
0.2 to 1 µM	C#Cc1nc(C(=O)N2CCN(c3ccc(-c4cc(C(=O)NC)cc5ncsc45)cc3)CC2)cs1 [Compound D3, 7-(4-(4-(2-Ethynylthiazole-4-carbonyl)piperazin-1-yl)phenyl)-N-methylbenzo[d]thiazole-5-carboxamide]
≤ 0.2 µM	C#Cc1nc(C(=O)N2CCN(c3ccc(-c4cc(C(=O)OC)cc5ncsc45)cc3)CC2)cs1 [Compound D4, Methyl 7-(4-(4-(2-ethynylthiazole-4-carbonyl)piperazin-1-yl)phenyl)benzo[d]-thiazole-5-carboxylate]
1 to 5 µM	C#Cc1nc(C(=O)N2CCN(c3ccc(-c4cc(C(N)=O)cc5ncsc45)cc3)CC2)cs1 [Compound D5, 7-(4-(4-(2-Ethynylthiazole-4-carbonyl)piperazin-1-yl)phenyl)benzo[d]thiazole-5-carboxamide]
≤ 0.2 µM	C#Cc1nc(C(=O)N2CCN(c3ccc(-c4cc(C(=O)N(C)C)cc5ncsc45)cc3)CC2)cs1 [Compound D6, 7-(4-(4-(2-Ethynylthiazole-4-carbonyl)piperazin-1-yl)phenyl)-N,N-dimethyl-benzo[d]thiazole-5-carboxamide]
≤ 0.2 µM	C#Cc1ncc(C(=O)N2CCN(c3ccc(-c4cccc5ncsc45)cc3)CC2)s1 [Compound D7, (4-(4-(benzo[d]thiazol-7-yl)phenyl)piperazin-1-yl)(2-ethynylthiazol-5-yl)methanone]
